For orientation: inhibition means the share of the control response that was lost under treatment. A word on the pIC50: it is −log10 of the IC50, conventionally taken in molar units. By IC50 is commonly meant the point on the concentration scale where inhibition reaches its midpoint.

Our source for the inhibition, IC50 and solubility values is ChEMBL document CHEMBL4813986, “Multicomponent synthesis and anti-proliferative screening of biaryl triazole-containing cyclophanes” (Bioorg Med Chem Lett, 2021).

Structures are written as SMILES. pIC50: −log10 of the molar value. ≈ marks a conversion by molar mass, not a printed value. Calls of active or inactive are those of the source. The calls are words filed in the database; no cut-off is given here.

The test system of data set [1] is PC-3. Nature of the data set: Antiproliferative activity against human PC-3 cells assessed as inhibition of cell growth at 50 uM relative to control. The format is functional.
Another data set concerns DU-145. Nature of the data set: Antiproliferative activity against human DU-145 cells assessed as inhibition of cell growth at 50 uM relative to control. Format: functional.
The test system of a further data set is MCF7. Nature of the data set: Antiproliferative activity against human MCF7 cells assessed as inhibition of cell growth at 50 uM relative to control. The format is functional.
Data set [2] is described as follows: Cytotoxicity against African green monkey COS7 cells assessed as inhibition of cell growth at 50 uM relative to control. Format: cell-based. The note with it: chlorocebus aethiops, COS-7 cells.
Data set [3] has as its system PC-3. The data set is described as follows: Antiproliferative activity against human PC-3 cells assessed as inhibition of cell growth. The format is functional, cell-based.
Data set [4] in a line: Aqueous solubility of the compound. The note with it: buffer. Format: physicochemical.
The next data set relates to Bel-7402. The data set is described as follows: Cytotoxicity against human Bel-7402 cells assessed as reduction in cell viability measured after 5 days by MTT assay. Format: functional, cell-based. (Tetrazolium assays rely on reduction of a dye to a coloured formazan, in cell work by metabolically active cells.)

For the compound `CCCCCCCCCCCCNC(=O)C1c2cccc(c2)-c2ccc(cc2)OCc2cn(nn2)CCCCOc2ccc(cc2)CC(=O)N1c1ccc(C(F)(F)F)cc1` (stereo not given), the inhibition at 50 µM with PC-3 [1] came out at 36.4%; in the data set on DU-145 it was 52.8%; with MCF7, 42.9%; in data set [2] it was 16.6%.
Taken in the same sequence, the figures for `CCCCCCCCCCCCNC(=O)C1c2cccc(c2)-c2ccc(cc2)OCc2cn(nn2)CCOc2ccc(cc2)CC(=O)N1c1ccc(C(F)(F)F)cc1` (stereo not given) were 45.8%, 19.7%, 41.7% and 33.6%.
Taken in the same sequence, the figures for `O=C(NC1CCCCC1)C1c2cccc(c2)-c2ccc(cc2)OCc2cn(nn2)CCOc2ccc(cc2)CC(=O)N1Cc1ccccc1` (stereo not given) were 11.6%, 11%, 15.2% and 9.9%.
Taken in the same sequence, the figures for `O=C(NC1CCCCC1)C1c2cccc(c2)-c2ccc(cc2)OCc2cn(nn2)CCCCOc2ccc(cc2)CC(=O)N1c1ccc(C(F)(F)F)cc1` (stereo not given) were 48.5%, 39%, 57.1% and 38.1%.
In the case of `CCCCCCCCCCCCNC(=O)C1c2cccc(c2)-c2ccc(cc2)OCc2cn(nn2)CCOc2ccc(cc2)CC(=O)N1c1ccc(F)cc1` (stereo not given), the inhibition at 50 µM in the data set on PC-3 [1] is 68.3%; with DU-145, 93.1%; in the data set with MCF7 it was 82.4%; in data set [2], 35%. In addition, the pIC50 in the data set on PC-3 [3] is 4.86.
`O=C(NC1CCCCC1)C1c2cccc(c2)-c2ccc(cc2)OCc2cn(nn2)CCCOc2ccc(cc2)CC(=O)N1c1ccc(C(F)(F)F)cc1` (stereo not given): the inhibition at 50 µM worked out at 35.5% in the data set on PC-3 [1], 20.1% with DU-145, 60.9% in the data set with MCF7 and 30.9% in data set [2].
For `O=C(NC1CCCCC1)C1c2cccc(c2)-c2ccc(cc2)OCc2cn(nn2)CCOc2ccc(cc2)CC(=O)N1c1ccc(F)cc1` (stereo not given), the inhibition at 50 µM in the data set with PC-3 [1] stood at 50.3%; with DU-145, 28.4%; in the data set with MCF7 it was 43.2%; in data set [2], 43.2%.
`O=C(NC1CCCCC1)C1c2cccc(c2)-c2ccc(cc2)OCc2cn(nn2)CCOc2ccc(cc2)CC(=O)N1c1ccc(C(F)(F)F)cc1` (stereo not given): the inhibition at 50 µM in the data set on PC-3 [1] amounted to 46.9%; in the data set with DU-145, 37.1%; in the data set with MCF7, 45.8%; in data set [2] it was 37.7%.
Consider `COc1cc([C@@H]2c3cc4c(cc3[C@@H](O[C@@H]3O[C@@H]5CO[C@@H](C)O[C@H]5[C@H](O)[C@H]3O)[C@H]3COC(=O)[C@H]23)OCO4)cc(OC)c1O` [ETOPOSIDE], for which, in the data set on PC-3 [3], the pIC50 was 4.50.
Take `CC(C)c1ccc(N2C(=O)Cc3ccc(cc3)OCCCn3cc(nn3)COc3cccc(c3)C2C(=O)NC2CCCCC2)cc1` (stereo not given): in the data set on PC-3 [3], the negative-log IC50 (pIC50) is 5.01.
`CCCCCCCCCCCCNC(=O)C1c2cccc(c2)-c2ccc(cc2)OCc2cn(nn2)CCCOc2ccc(cc2)CC(=O)N1c1ccc(C(F)(F)F)cc1` (stereo not given): the inhibition at 50 µM with PC-3 [1] is 15.3%; in the data set with DU-145 it was 9.8%; in the data set on MCF7, 45.6%; in data set [2], 20.4%.
Taken in the same sequence, the figures for `CC(C)(C)NC(=O)C1c2cccc(c2)-c2ccc(cc2)OCc2cn(nn2)CCOc2ccc(cc2)CC(=O)N1Cc1ccccc1` (stereo not given) were 48.3%, 25.5%, 44.6% and 37.8%.
On to `CCCCCCCCCCCCNC(=O)C1c2cccc(c2)-c2ccc(cc2)OCc2cn(nn2)CCCCCOc2ccc(cc2)CC(=O)N1c1ccc(C(F)(F)F)cc1` (stereo not given), for which the inhibition at 50 µM in the data set on PC-3 [1] was determined as 22%; in the data set with MCF7, 24.9%; in data set [2], 10.2%. The inhibition result in the data set with DU-145 is “inactive”.
Take `CCCCCCCCCCCCNC(=O)C1c2cccc(c2)-c2ccc(cc2)OCc2cn(nn2)CCCOc2ccc(cc2)CC(=O)N1c1ccc(C(C)C)cc1` (stereo not given): the inhibition at 50 µM in the data set with PC-3 [1] was 30.1%; with DU-145, 21.2%; with MCF7, 31.8%; in data set [2] it was 9.9%. In addition, the solubility entry in data set [4] is given as “Insoluble”.
Regarding `CC(C)c1ccc(N2C(=O)Cc3ccc(cc3)OCCn3cc(nn3)COc3ccc(cc3)-c3cccc(c3)C2C(=O)NC2CCCCC2)cc1` (stereo not given), the inhibition at 50 µM with PC-3 [1] was found to be 90.2%; in the data set on DU-145, 93.8%; in the data set on MCF7, 81.8%; in data set [2], 37.5%. Also, the pIC50 with PC-3 [3] is 5.34.
With `CCCCCCCCCCCCNC(=O)C1c2cccc(c2)-c2ccc(cc2)OCc2cn(nn2)CCOc2ccc(cc2)CC(=O)N1c1ccc(C(C)C)cc1` (stereo not given), the inhibition at 50 µM amounted to 25.4% in the data set on PC-3 [1], 51% with DU-145, 39.2% with MCF7 and 25.6% in data set [2]. For the same compound, the solubility entry in data set [4] is “Insoluble”.
For the compound `CCCCCCCCCCCCNC(=O)C1c2cccc(c2)-c2ccc(cc2)OCc2cn(nn2)CCOc2ccc(cc2)CC(=O)N1Cc1ccccc1` (stereo not given), the inhibition at 50 µM came out at 25.8% with PC-3 [1], 10.4% in the data set on DU-145, 26.4% in the data set on MCF7 and 28.2% in data set [2].
As to `CC(C)(C)NC(=O)C1c2cccc(c2)-c2ccc(cc2)OCc2cn(nn2)CCCOc2ccc(cc2)CC(=O)N1Cc1ccccc1` (stereo not given), the inhibition at 50 µM stood at 5.5% in the data set with PC-3 [1], 67.9% in the data set on MCF7 and 33.1% in data set [2]. In addition, the inhibition entry in the data set with DU-145 is “inactive”.
Turning to `CC1=C[C@H]2O[C@@H]3C[C@H]4OC(=O)/C=C\C=C\[C@@H]5O[C@@H](O[C@H]5C)[C@H](O)/C(C)=C/C(=O)OC[C@@]2(CC1)[C@]4(C)[C@]31CO1`, in the data set on Bel-7402, the half-inhibitory concentration (IC50) worked out at 0.35 µg/mL (≈ 0.662 µM).
`CC(C)c1ccc(N2C(=O)Cc3ccc(cc3)OCCCn3cc(nn3)COc3ccc(cc3)-c3cccc(c3)C2C(=O)NC2CCCCC2)cc1` (stereo not given): the inhibition at 50 µM in the data set on PC-3 [1] came to 60.8%; with DU-145, 41.9%; in the data set on MCF7, 58.2%; in data set [2], 48%. In addition, in the data set on PC-3 [3], the negative-log IC50 (pIC50) was 4.86.
With `O=C(NC1CCCCC1)C1c2cccc(c2)-c2ccc(cc2)OCc2cn(nn2)CCCCCOc2ccc(cc2)CC(=O)N1c1ccc(C(F)(F)F)cc1` (stereo not given), the inhibition at 50 µM in the data set with PC-3 [1] was 46%; with DU-145, 48.8%; in the data set on MCF7, 53.3%; in data set [2], 45.4%.
